The structures appear in SMILES notation. Like-named read-outs stand apart in the source and are kept apart here.

Experimental findings from patent publication EP4703356A1, “SALT OF PIPERIDYLINDOLE COMPOUND AND PREPARATION METHOD THEREFOR” (Shanghai Hansoh Biomedical Co., Ltd., priority 2023, dated 2024) are described below.

For data set [1], the target named is T1, Recombinant human factor B catalytic domain (Homo sapiens, UniProt P00751). As to the kind of experiment: Target residence time of factor B inhibitors by surface plasmon resonance (SPR). The note with it: for t1/2: binding half-life, t1/2 = ln2/koff; for residence time: read-out: Residence time (s).
T1 sequence (P00751 470-764): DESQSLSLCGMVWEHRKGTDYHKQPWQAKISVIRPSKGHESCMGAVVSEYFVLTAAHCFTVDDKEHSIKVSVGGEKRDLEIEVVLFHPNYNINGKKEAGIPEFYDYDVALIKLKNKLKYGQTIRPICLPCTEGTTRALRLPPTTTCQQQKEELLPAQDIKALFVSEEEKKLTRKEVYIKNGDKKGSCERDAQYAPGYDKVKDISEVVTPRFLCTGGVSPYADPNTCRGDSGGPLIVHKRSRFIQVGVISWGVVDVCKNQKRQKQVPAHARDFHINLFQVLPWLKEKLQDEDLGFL
The target of data set [2] is T1, Recombinant human factor B catalytic domain. As to the kind of experiment: TR-FRET factor B binding assay.
A short description of data set [3]: Pharmacokinetic study in rat eyes. In kind it is in vivo, brown Norway rats. The note with it: Brown Norway, 2 mg/kg, 2 mpk PO; for half-life: in vivo. The procedure: Three-month-old brown Norway rats were orally gavaged with the example compound as a suspension in 2 equivalents of 1 N HCl + 30% PEG300 + 50% (20% Cremophor EL aqueous solution). At 0.25, 0.5, 1, 6, and 24 hours post-dosing, ocular tissues and plasma were collected from both eyes of the rats at respective time points. The ocular tissues collected comprised retina and the posterior eyecup (RPE/choroid and posterior sclera). Tissues were diluted with phosphate-buffered saline containing 10% acetonitrile, followed by homogenization and centrifugation prior to analysis. At each time point, test article concentrations in plasma and eye homogenate supernatants were measured in four individual retinal samples, four individual posterior eyecup samples and two individual plasma samples by using HPLC-MS/MS. Chromatographic separation was performed on a Waters BEH C18 column (2.1 × 50 mm, 1.7 µm) (MAC-MOD Analytical, Chadds-Ford, PA) with a gradient elution method using water and acetonitrile, both containing 0.025% formic acid-1 M NH4OAc. Mass spectrometry measurements in positive electrospray ionization were performed to quantify mass transitions using [M+H]+ as the precursor ion on an API6500 triple quadrupole mass spectrograph (Sciex, Framingham, MA). The relevant pharmacokinetic parameters were estimated using the non-compartmental method in WinNonlin (Enterprise, version 8.2). Table 3: Rat PK study results (2 mpk PO)

In data set [4] the test system is alternative complement pathway (AP). As to the kind of experiment: Assessment of PD inhibition in rat plasma (ex vivo AP ELISA, MAC deposition on LPS, serum after oral dosing). On the set-up: species or system Sprague-Dawley rats. The note with it: over 24 hours; for inhibition at 2 mg/kg: Rattus norvegicus, rats, oral 2 mg/kg, AP deposition in 50% serum, read-out: Serum PD inhibition (%) over 24 hours (2 mpk). On the procedure:
Male Sprague-Dawley rats (n = 3) were orally administered with vehicles (0.5% (w/v) methylcellulose, 0.5% (v/v) Tween 80), compound Iptacopan, or example compound formulations (in 0.5% (w/v) methylcellulose, 0.5% (v/v) Tween 80) at a dose of 2 mg/kg. Rat serum samples were collected at 0.25, 0.5, 1, 2, 4, 6, 8, and 24 hours post-dosing, and stored at -80°C. […] The coated plates were washed with GVB buffer (Complement technology) containing 5 mM MgCl2 and 10 mM EGTA (blocking both classical and lectin pathways). The collected serum samples were diluted by adding an equal volume of GVB buffer containing 10 mM MgCl2 and 20 mM EGTA. For negative controls, serum was diluted with GVB buffer containing 40 mM EDTA (blocking all complement pathways). Aliquots (50 ul) of 50% serum samples were added to the LPS-coated wells. The reaction plate was incubated at 37°C for 20 minutes (rat serum). […] Baseline (EDTA-treated serum) and maximum signal (EGTA-treated serum from vehicle-treated rats) were used to generate a percent inhibition value for each well.
Each data point in FIG. 37 represents the mean AP activity in rat serum. […] Table 5: Rat 24-hour PD study results

For a further data set, the system named is AP complement activation. The experiment in a line: In vivo assessment of AP complement functional activity in mice (LPS-induced, plasma C3b/iC3b/C3c ELISA). More on the design: species or system C57BL/6 mice. The following applies: LPS 2.5 mg/kg i.p. 7.5 hours before end, compound 20 mg/kg oral 20 hours before end. On the procedure: 20 hours before the end of the study, female C57BL/6 mice were orally gavaged with the formulation of compound of Example 3 (20 mg/kg, 0.5% (w/v) methylcellulose, 0.5% (v/v) Tween 80). To activate the complement pathway, lipopolysaccharide (LPS) from Salmonella typhimurium (Sigma) was injected intraperitoneally (2.5 mg/kg) 7.5 hours before the end of the study. Control mice received intraperitoneal injections of normal saline and oral gavage administration of vehicles. At the end of the study, plasma samples were collected from the mice. AP complement activation was assessed by measuring plasma C3 cleavage products, C3b/iC3b/C3c, using an ELISA method with rat anti-mouse C3b/iC3b/C3c monoclonal antibodies (clone 2/11, Hycult Biotech, 0.1 µg/well), and a goat anti-rat IgG (whole molecule)-peroxidase (Sigma) diluted in TBST (TBS/0.05% Tween 20). Table 4: Plasma C3b/iC3b/C3c following treatment

Data set [5] in a line: Salt form screening (natural evaporation and reactive crystallisation). In kind it is physicochemical. The note with it: for PLM/XRPD or slurry solvent: 1:1; for Characterization result: reactive crystallisation, Ethyl acetate, 1:1, stirred room temperature about 24 hours. More on the design: key to PLM/XRPD or slurry solvent: "√" indicates the presence of birefringence phenomenon; "×" indicates the absence of birefringence phenomenon. The procedure:
Salt form screening experiments were conducted via the solvent evaporation method. About 10 mg of the free base of Example 3 was weighed into a 2 mL glass vial and dissolved in 100 µL of an organic solvent. A solution of the counterion acid in methanol was added dropwise at a molar ratio of 1:1. The resulting clear solution was allowed to evaporate at room temperature. The obtained solid was first characterised by PLM. If no birefringence was observed, the solids were slurried by adding a solvent. If birefringence was observed, the solids were further characterised by XRPD. Compounds with high crystallinity were selected for characterization by DSC and TGA.
Approximately 10 mg of the free base compound of Example 3 was weighed into a 2 mL glass vial and dissolved in 100 µL of an organic solvent. 22 µL of a solution of the acid in ethyl acetate was slowly added dropwise at a molar ratio of 1 : 1 under stirring. The resulting clear solution was stirred at room temperature for approximately 24 hours. The resulting solid was dried in vacuo at 40°C and characterised by XRPD, DSC and TGA.

[6] abbreviates: plasma, read-out: Plasma AUC0-last.
The mark [7] stands for this setting: retina, read-out: Retina AUC0-last.

As for `COc1cc(C)c2[nH]ccc2c1CN1CCC2(C[C@H]1c1ccc(C(=O)O)cc1C(F)F)CC(F)(F)C2` [Example 1], in data set [1], the Kd was 770 pM, the “t1/2” value turned out to be 0.8911 h and the residence time was 4630 s. In addition, the IC50 in data set [2] is under 2000 pM.
`CCO[C@H]1CCN(Cc2c(OC)cc(C)c3[nH]ccc23)[C@H](c2ccc(C(=O)O)cc2)C1` [Iptacopan, reference compound]: the AUC(0-t) turned out to be 13.5 µM·h in data set [3] (setting [6]) and 0.141 µM·h in data set [3] (setting [7]). The half-life in data set [3] was 5.3 h. In data set [4], the inhibition at 2 mg/kg was -3%.
For the compound `COc1cc(C)c2[nH]ccc2c1CN1CCC2(C[C@H]1c1ccc(C(=O)O)cc1C)CC(F)(F)C2` [Example 3, (S)-4-(2,2-difluoro-7-((5-methoxy-7-methyl-1H-indol-4-yl)methyl)-7-azaspiro[3.5]nonan-6-yl)-3-methylbenzoic acid], in data set [1], the Kd is 170 pM. In data set [1], the “t1/2” value was found to be 1.188 h. In addition, in data set [1], the residence time was 6170 s. In addition, the IC50 in data set [2] is under 2000 pM. The AUC(0-t) in data set [3] (setting [6]) was 12.7 µM·h; in data set [3] (setting [7]), 0.796 µM·h. Besides, the half-life in data set [3] is 22.2 h. In the data set on AP complement activation, the “Plasma C3b/iC3b/C3c (1 x 10^6)” value is 210.25 ^ns 1 x 10^6. For the same compound, the “Post-slurry PLM/XRPD” value in data set [5] (natural evaporation, Acetone, Hydrobromic acid (22 µL), slurried in ethyl acetate) is given as “√, crystal form A of hydrobromide”; in data set [5] (natural evaporation, Acetone, Hydrochloric acid (22 µL), slurried in ethyl acetate) it was “√, high crystallinity, crystal form A of hydrochloride”; in data set [5] (natural evaporation, Acetone, Methanesulphonic acid (22 µL), slurried in ethyl acetate), “√, crystal form A of methanesulfonat e”; in data set [5] (natural evaporation, Acetone, p-Toluenesulphonic acid (22 µL), slurried in ethyl acetate), “√, crystal form A of p-toluenesulfonate”; in data set [5] (natural evaporation, Methanol, Hydrochloric acid (22 µL), slurried in 2-methyltetrahydrofuran), “√, crystal form B of hydrochloride”. The “PLM/XRPD or slurry solvent” value in data set [5] (natural evaporation, solvent Acetone, Hydrobromic acid (22 µL)) is “×, ethyl acetate”; in data set [5] (natural evaporation, solvent Acetone, Hydrochloric acid (22 µL)), “×, ethyl acetate”; in data set [5] (natural evaporation, solvent Acetone, Methanesulphonic acid (22 µL)), “×, ethyl acetate”; in data set [5] (natural evaporation, solvent Acetone, p-Toluenesulphonic acid (22 µL)), “×, ethyl acetate”; in data set [5] (natural evaporation, solvent Methanol, Adipic acid (22 µL)), “√, crystal form A of adipate”; in data set [5] (natural evaporation, solvent Methanol, Fumaric acid (88 µL)), “√, crystal form A of fumarate”. Moreover, the “PLM/XRPD or slurry solvent” value in data set [5] (natural evaporation, solvent Methanol, Hippuric acid (55 µL)) is on record as “√, crystal form A of hippurate”; in data set [5] (natural evaporation, solvent Methanol, Hydrobromic acid (22 µL)), “√, high crystallinity”; in data set [5] (natural evaporation, solvent Methanol, Hydrochloric acid (22 µL)) it was “×, 2-methyltetrahydrofuran”; in data set [5] (natural evaporation, solvent Methanol, Malonic acid (22 µL)), “√, crystal form A of malonate”; in data set [5] (natural evaporation, solvent Methanol, Oxalic acid (22 µL)), “√, crystal form A of oxalate”; in data set [5] (natural evaporation, solvent Methanol, Succinic acid (22 µL)), “√, crystal form A of succinate”. The “PLM/XRPD or slurry solvent” value in data set [5] (solvent Ethyl acetate, Hydrobromic acid (22 µL), Clear → Suspension (slurried)) is on record as “√, crystal form A of hydrobromide”; in data set [5] (solvent Toluene, Hydrobromic acid (22 µL), Clear → Suspension (slurried)), “√, crystal form A of hydrobromide”. For the same compound, the Characterization result in data set [5] (Hydrobromic acid) was “Crystal form A of hydrobromide”; in data set [5] (Hydrochloric acid) it was “Crystal form A of hydrochloride”; in data set [5] (Methanesulphonic acid), “Crystal form A of methanesulfonate”. Besides, the “inhibitory effects in the ex vivo PD assay in rats” value in data set [4] (2 mg/kg oral, 50% serum) is reported as “sustained inhibitory effects”. Moreover, the inhibition at 2 mg/kg in data set [4] came out at 57.5%.
Consider `Cc1cc(C2CC2)c(CN2CCC3(C[C@H]2c2ccc(C(=O)O)cc2)CC(F)(F)C3)c2cc[nH]c12` [Example 2], for which, in data set [1], the Kd was 380 pM, the “t1/2” value came out at 1.214 h and the residence time is 6310 s. The IC50 in data set [2] was under 2000 pM.
